US7794712B2, “Production of mutant strain of Aspergillus fumigatus, method of assay for inhibiting siderophore biosynthesis and diagnostic method for detecting likely Aspergillus fumigatus infection” (priority 2004, dated 2010)
“And” between values parts separate entries of the source, which are not always exact repeats. Equal values may be shown once.

Legend:
A. fumigatus 13073 [1] = assay: Growth scored by A600 in 96-well plates with or without iron; type: cell-based, Aspergillus fumigatus; details: 48 hours
Experimental: Siderophore production and growth was scored by using one antibiotic (amphotericin B) with two types of media (Neilands' with and without citrate), using the same spore concentrations as given above, but a shorter incubation time. Generally, this portion of the assay would be carried out when there was a potential inhibitor which scored positively in the first round of screening. Growth is scored with and without iron in the media.
(§1) Three identical plates were set up: one filter plate and two sterile clear 96-well plates. The clear plates were used to score growth, and the filter plate was used to detect siderophores. Columns 1-6 contained Neilands' medium without citrate and amphotericin 0-2 at g/ml. Columns 7-12 contained Neilands' medium with citrate and amphotericin at […]. The rows were set up with A. fumigatus as described above, but two sets of each were set up to be in the two plates. The spores from the previous experiment were stored at −20° C. in PBS, in siliconized tubes, at 2×10^8 conidia/ml, to facilitate these experiments. Plates were incubated for 48 hours at 37° C. without shaking.
(§2) The filter plate was centrifuged at 1000×g for 10 minutes and the liquids caught in a clear non-sterile plate, to which FeCl3 was added. The plate was allowed to sit and develop orange colour, and was then read at 440 nm. The clear plates (one without Fe and one with Fe added to growth medium from the beginning) were read at 600 nm (A600). In the result, iron enhanced conidiation. Some wells of the filter plate were lightly conidiated and would not drain. These were hand pipetted.

invasive aspergillosis = details: with prophylaxis and treatment; cited from earlier work
A. fumigatus 13073 [2] = assay: Siderophore secretion inhibitor assay (A440 after FeCl3 addition); type: cell-based, Aspergillus fumigatus; details: for A440 (ferrated siderophores): 3 days; for Siderophore production as measured by A440: Neilands' medium without citrate, 48 hours
Excerpt: In this example 96-well sterile polystyrene filter plates as described above with white Duropore membranes at the base of the plate (Millipore) were used. The plates include a thick plastic layer under the wells, which has a one-way valve function that directs fluid into a receiving 96-well plate when the filter plate is subjected to a vacuum manifold or a centrifugal force. This layer can be peeled off if the membranes are to be sampled (punched) later.
Cultures were set up in the filter plates, with controls and inhibitors to be tested. After inclubation, culture fluid was pulled into a 96-well receiver plate, using the Beckman centrifuge and a JS 5.3 rotor designed to take 96-well plates. FeCl3 was added to the receiver plates, and A430 (general siderophores) or A440 (max for TAF) was read. Growth was scored in the plate by reading A600.
To test this method, different antibiotics were used to show inhibition of siderophore production by A. fumigatus 13073, as no inhibitors for the SidA gene product are currently known. Suitable ranges of concentrations of amphotericin B (fungizone), hygromycin, and nystatin were calculated based on the literature. Spores were harvested from A. fumigatus 13073 into PBS Tween, then washed once with PBS and counted. They were then diluted into Neilands' medium (without citrate) to give solutions of 2×10^5 and 2×10^6/ml. 100 μl of 2× spores and 100 μl of 2× antibiotics to yield a volume of 200 μl of Neilands' medium in each well, with the desired final concentrations of spores, 10^5 or 10^6/ml.
Antibiotics were prepared as follows. Amphotericin B came as a liquid solution, 250 µg/ml. […] Therefore 0, 0.125, 0.25, 0.5, 1 and […] final concentration was used. Nystatin was stored it in ˜1 mg dry aliquots at −20 C, and was prepared at a concentration of 2 mg/ml in DMSO for dilution into Neilands' media. According to reported information, nystatin should be effective at 1.5 to 6.5 µg/ml; therefore, 0, 0.5, 1, 5, 10 and 50 µg/ml were used as the final concentrations. Hygromycin gold stock was in solution at 100 mg/ml, and 0, 25, 50, 100, 150 and 200 µg/ml were used as the final concentrations in Neilands' medium. Plates were incubated for 3 days at 37° C. with shaking.
To test for siderophores, 20 μL of a solution of 2 mM FeCl3 in 10 mM HCl was added to each well in the receiver plates and the A440 was recorded on a plate reader. […] An increase in A440 indicates a more intense orange-red colour that develops in the presence of ferrated siderophores. […] Because 3-day incubation produces conidia, shorter incubation periods may be preferable.
as §1, §2

## C[C@@H]1[C@H](O)[C@@H](C)/C=C/C=C/C=C/C=C/C=C/C=C/C=C/[C@H](O[C@@H]2O[C@H](C)[C@@H](O)[C@H](N)[C@@H]2O)C[C@@H]2O[C@](O)(C[C@@H](O)C[C@@H](O)[C@H](O)CC[C@@H](O)C[C@@H](O)CC(=O)O[C@H]1C)C[C@H](O)[C@H]2C(=O)O [amphotericin B]
A. fumigatus 13073 [1]; Neilands' medium with vs without Fe
  Effect of iron on growth inhibition: addition of iron did not change the pattern of growth inhibition
A. fumigatus 13073 [1]; amphotericin B 0.13 μg/ml, 1000000 spores/ml, Neilands' medium without citrate or Fe
  Growth as measured by A600: 0.137 and 0.113 and 0.168
A. fumigatus 13073 [1]; amphotericin B 0.13 μg/ml, 1000000 spores/ml, Neilands' medium without citrate with Fe
  Growth as measured by A600: 0.139 and 0.113 and 0.169
A. fumigatus 13073 [1]; amphotericin B 0.25 μg/ml, 100000 spores/ml, Neilands' medium without citrate or Fe
  Growth as measured by A600: 0.068 and 0.083 and 0.076
A. fumigatus 13073 [1]; amphotericin B 0.25 μg/ml, 100000 spores/ml, Neilands' medium without citrate with Fe
  Growth as measured by A600: 0.067 and 0.091 and 0.076
A. fumigatus 13073 [1]; amphotericin B 0.25 μg/ml, 1000000 spores/ml, Neilands' medium without citrate or Fe
  Growth as measured by A600: 0.111 and 0.126 and 0.157
A. fumigatus 13073 [1]; amphotericin B 0.25 μg/ml, 1000000 spores/ml, Neilands' medium without citrate with Fe
  Growth as measured by A600: 0.11 and 0.126 and 0.157
A. fumigatus 13073 [1]; amphotericin B 0.50 μg/ml, 100000 spores/ml, Neilands' medium without citrate or Fe
  Growth as measured by A600: 0.035
A. fumigatus 13073 [1]; amphotericin B 0.5 μg/ml, 100000 spores/ml, Neilands' medium without citrate with Fe
  Growth as measured by A600: 0.035 and 0.034
A. fumigatus 13073 [1]; amphotericin B 0.50 μg/ml, 1000000 spores/ml, Neilands' medium without citrate or Fe
  Growth as measured by A600: 0.038 and 0.039 and 0.037
A. fumigatus 13073 [1]; amphotericin B 0.5 μg/ml, 1000000 spores/ml, Neilands' medium without citrate with Fe
  Growth as measured by A600: 0.038 and 0.039
A. fumigatus 13073 [1]; amphotericin B 1 μg/ml, 100000 spores/ml, Neilands' medium without citrate or Fe
  Growth as measured by A600: 0.035 and 0.036
A. fumigatus 13073 [1]; amphotericin B 1 μg/ml, 100000 spores/ml, Neilands' medium without citrate with Fe
  Growth as measured by A600: 0.035
A. fumigatus 13073 [1]; amphotericin B 1 μg/ml, 1000000 spores/ml, Neilands' medium without citrate or Fe
  Growth as measured by A600: 0.039 and 0.038
A. fumigatus 13073 [1]; amphotericin B 1 μg/ml, 1000000 spores/ml, Neilands' medium without citrate with Fe
  Growth as measured by A600: 0.039
A. fumigatus 13073 [1]; amphotericin B 2 μg/ml, 100000 spores/ml, Neilands' medium without citrate or Fe
  Growth as measured by A600: 0.035 and 0.036
A. fumigatus 13073 [1]; amphotericin B 2 μg/ml, 100000 spores/ml, Neilands' medium without citrate with Fe
  Growth as measured by A600: 0.035
A. fumigatus 13073 [1]; amphotericin B 2 μg/ml, 1000000 spores/ml, Neilands' medium without citrate or Fe
  Growth as measured by A600: 0.038 and 0.039
A. fumigatus 13073 [1]; amphotericin B 2 μg/ml, 1000000 spores/ml, Neilands' medium without citrate with Fe
  Growth as measured by A600: 0.038 and 0.039
Invasive aspergillosis
  Mortality rate if the disease spreads to the central nervous system: ~100%
  Mortality rate, pulmonary aspergillosis: 65%
A. fumigatus 13073 [2]; amphotericin B 0.13 μg/ml, 1.00E+05 spores/ml
  A440 (ferrated siderophores): 0.178 and 0.156 and 0.145
A. fumigatus 13073 [2]; amphotericin B 0.13 μg/ml, 1.00E+06 spores/ml
  A440 (ferrated siderophores): 0.211 and 0.200
A. fumigatus 13073 [2]; amphotericin B 0.13 μg/ml, 100000 spores/ml
  Siderophore production as measured by A440: 0.047 and 0.042
A. fumigatus 13073 [2]; amphotericin B 0.25 μg/ml, 1.00E+05 spores/ml
  A440 (ferrated siderophores): 0.038 and 0.039 and 0.040
A. fumigatus 13073 [2]; amphotericin B 0.25 μg/ml, 1.00E+06 spores/ml
  A440 (ferrated siderophores): 0.085 and 0.168 and 0.130
A. fumigatus 13073 [2]; amphotericin B 0.25 μg/ml, 100000 spores/ml
  Siderophore production as measured by A440: 0.044 and 0.043
A. fumigatus 13073 [2]; amphotericin B 0.25 μg/ml, 1000000 spores/ml
  Siderophore production as measured by A440: 0.047 and 0.046 and 0.048
A. fumigatus 13073 [2]; amphotericin B 0.50 μg/ml, 1.00E+05 spores/ml
  A440 (ferrated siderophores): 0.042 and 0.040 and 0.039
A. fumigatus 13073 [2]; amphotericin B 0.50 μg/ml, 1.00E+06 spores/ml
  A440 (ferrated siderophores): 0.038 and 0.042 and 0.035
A. fumigatus 13073 [2]; amphotericin B 0.50 μg/ml, 100000 spores/ml
  Siderophore production as measured by A440: 0.042 and 0.043 and 0.046
A. fumigatus 13073 [2]; amphotericin B 0.50 μg/ml, 1000000 spores/ml
  Siderophore production as measured by A440: 0.043 and 0.042
A. fumigatus 13073 [2]; amphotericin B 1.00 μg/ml, 1.00E+05 spores/ml
  A440 (ferrated siderophores): 0.032 and 0.039 and 0.036
A. fumigatus 13073 [2]; amphotericin B 1 μg/ml, 100000 spores/ml
  Siderophore production as measured by A440: 0.042 and 0.041 and 0.045
A. fumigatus 13073 [2]; amphotericin B 1 μg/ml, 1000000 spores/ml
  Siderophore production as measured by A440: 0.05 and 0.047
A. fumigatus 13073 [2]; amphotericin B 2.00 μg/ml, 1.00E+05 spores/ml
  A440 (ferrated siderophores): 0.041 and 0.034
A. fumigatus 13073 [2]; amphotericin B 2.00 μg/ml, 1.00E+06 spores/ml
  A440 (ferrated siderophores): 0.036 and 0.034
A. fumigatus 13073 [2]; amphotericin B 2 μg/ml, 100000 spores/ml
  Siderophore production as measured by A440: 0.045
A. fumigatus 13073 [2]; amphotericin B 2 μg/ml, 1000000 spores/ml
  Siderophore production as measured by A440: 0.044 and 0.043 and 0.045
